Earlier results, collected in patent US20150190322A1, “COMPOSITION, METHOD AND KIT FOR ENHANCING HAIR” (PHARMA PATENT HOLDING INC., priority 2009, published 2015).

Details: in some patients, during use for reduction of intraocular pressure

## CC(C)OC(=O)CCC/C=C\C[C@@H]1[C@@H](CC[C@@H](O)CCc2ccccc2)[C@H](O)C[C@@H]1O [Latanoprost, isopropyl-(Z)-7[(1R, 2R, 3R, 5S)3,5-dihydroxy-2-[(3R)-3-hydroxy-5-phenylp-entyl]cyclopentyl]-5-heptenoate]
  pigmentation and growth of eyelashes: increasing pigmentation and growth of eyelashes
